According to patent US5039808A, “Therapeutically active cyclopropyl substituted compound” (priority 1988, dated 1991):

How the values were obtained:
[1] = system: gastric acid secretion; assay: Inhibition of Gastric Acid Secretion in the Conscious Male Rat (pentagastrin and carbachol stimulated); type: in vivo, Male rats of the Sprague-Dawley strain; conditions: second hour after administration
Procedure: (§1) The potency for inhibition of acid secretion has been measured in the male rat and the dog, both intravenously and intraduodenally. When it comes to relevance of the animal test data for potency of a given compound in man for the present type of compounds, it is believed that potency in man will correspond to a level somewhere between what is measured in the male rat and what is measured in the dog.
Male rats of the Sprague-Dawley strain were used. They were equipped with cannulated fistulae in the stomach (lumen) and the upper part of the duodenum, for collection of gastric secretions and administration of test substances, respectively. A fourteen days recovery period after surgery was allowed before testing commenced.
Before secretory tests, the animals were deprived of food but not water for 20 h. The stomach was repeatedly washed through the gastric cannula, and 6 ml of Ringer-Glucose given s.c. Acid secretion was stimulated with a infusion during 3.5 h (1.2ml/h, s.c.) of pentagastrin and carbachol (20 and 110 nmol/kg h, respectively), during which time gastric secretions were collected in 30-min fractions. Test substances or vehicle were given iv or id at 90 min after starting the stimulation, in a volume of 1 ml/kg. Gastric juice samples were titrated to pH 7.0 with NaOH, 0.1 mol/L, and acid output calculated as the product of titrant volume and concentration. Further calculations were based on group mean responses from 4-5 rats. The acid output during the periods after administration of test substances or vehicle were expressed as fractional responses, setting the acid output in the 30-min period preceding administration to 1.0. Percentage inhibition was calculated from the fractional responses elicited by test compound and vehicle. ED50 -values were obtained from graphical interpolation on log dose-response curves, or estimated from single-dose experiments assuming a similar slope for all dose-response curves. An estimation of the bioavailability was obtained by calculating the ratio ED50 iv/ED50 id. The results reported are based on gastric acid secretion during the second hour after drug/vehicle administration.

[2] = system: gastric acid secretion; assay: Inhibition of Gastric Acid Secretion in the Conscious Dog (histamine stimulated); type: in vivo, Harrier dogs of either sex
Procedure: as §1
(§2) Harrier dogs of either sex were used. They were equipped with a duodenal fistula for the administration of test compounds or vehicle and a cannulated ventricular fistula for the collection of gastric secretions.
Before secretory tests the animals were fasted for about 18 h but water was freely allowed. Gastric acid secretion was stimulated by a 4 h infusion of histamine dihydrochloride (12 ml/h) at a dose producing about 80% of the individual maximal secretory response, and gastric juice collected in consecutive 30-min fractions. Test substance or vehicle was given id or iv 1 h after starting the histamine infusion, in a volume of 0.5 ml/kg body weight. The acidity of the gastric juice samples were determined by titration to pH 7.0, and the acid output calculated. The acid output in the collection periods after administration of test substance or vehicle were expressed as fractional responses, setting the acid output in the fraction preceding administration to 1.0. Percentage inhibition was calculated from fractional responses elicited by test compound and vehicle. ED50 -values were obtained by graphical interpolation on log dose - response curves, or estimated from single-dose experiments under the assumption of the same slope of the dose-response curve for all test compounds. All results reported are based on acid output 2 h after dosing.

[3] = Rough Screening Model for bioavailability: ratio ED50 iv/ED50 id of acid secretion inhibition in the rat; set-up: species or system Male rats of the Sprague-Dawley strain; conditions: in vivo, ratio of ED50 values, read-out: "Bioavailability" measured by the Rough Screening Model, Rat ED50 iv/ED50 id
Procedure: Since the bioavailability model described above is time and labour intensive, and requires a large number of plasma analyses, also a rough screening model, based on relative potencies to inhibit acid secretion, has been used (see for instance: A. Goth, Medical Pharmacology, 7the ed., C. V. Mosby Company, Saint Louis 1974, p 19). Thus, the ratio (called "Bioavailability" in Table 3) between the ED50 at intravenous administration and the ED50 at intraduodenal administration was calculated.
Before secretory tests, the animals were deprived of food but not water for 20 h. The stomach was repeatedly washed through the gastric cannula, and 6 ml of Ringer-Glucose given s.c. Acid secretion was stimulated with a infusion during 3.5 h (1.2ml/h, s.c.) of pentagastrin and carbachol (20 and 110 nmol/kg h, respectively), during which time gastric secretions were collected in 30-min fractions. […] Gastric juice samples were titrated to pH 7.0 with NaOH, 0.1 mol/L, and acid output calculated as the product of titrant volume and concentration. […] The acid output during the periods after administration of test substances or vehicle were expressed as fractional responses, setting the acid output in the 30-min period preceding administration to 1.0. Percentage inhibition was calculated from the fractional responses elicited by test compound and vehicle. […]

[4] = Bioavailability in the dog, AUC method; type: in vivo, Harrier dogs of either sex; conditions: id vs iv, plasma up to 3 h, extrapolated to infinite time, read-out: Bioavailability measured by the AUC-method F%, Dog
Procedure: Bioavailability is assessed by calculating the quotient between the area under plasma concentration (AUC) curve following introduodenal (id) administration and intravenous (iv) administration from the rat or the dog. Low, therapeutically relevant doses, were used. This method is scientifically recognized as valid for assessing bioavailability (see for instance: M. Rowland and T. N. Tozer, Clinical Pharmacokinetics, 2nd ed., Lea & Febiger, London 1989, p 42).
as §2
Blood samples for the analysis of test compound concentration in plasma were taken at intervals up to 3 h after dosing. Plasma was separated and frozen within 30 min after collection. AUC (area under the plasma concentration - time curve), extrapolated to infinite time, was calculated by the linear trapezoidal rule. The systemic bioavailability (F%) after id administration was calculated as 100 × (AUCid /AUCiv).

[5] = Chemical stability in aqueous buffer solution; type: physicochemical; conditions: low concentration
Procedure: The chemical stability of various compounds of the invention has been followed kinetically at low concentration at 37°C. in aqueous buffer solution at different pH values. The results in Table 3 show the half life (t 1/2) at pH 7, that is the time period after which half the amount of the original compound remains unchanged.

[6] = Bioavailability in the Male Rat, AUC method; type: in vivo, Male adult rats of the Sprague-Dawley strain; conditions: blood, 4 umol/kg, 4 μmol/kg id and iv, up to 4 h, extrapolated to infinity, read-out: Bioavailability measured by the AUC-method F%, Rat
Source text: The results from tests on two different animal species, rat and dog, vary in regard to measured level of bioavailability for the same compound. We believe that the rat is the more relevant species for bioavailability testing. This is based on our belief that liver metabolism has the most predominant impact upon bioavailability, and that the liver metabolic pattern in man for this type of compounds is quite similar to that of the male rat (more so than of the female rat and the dog). Moreover, test results of bioavailability in the male rat will tend to give a broader "spread" compared with the test results in the dog, and thus the male rat model will give more clear differences in bioavailability between different compounds. […]
Bioavailability is assessed by calculating the quotient between the area under plasma concentration (AUC) curve following introduodenal (id) administration and intravenous (iv) administration from the rat or the dog. […]
The area under the blood concentration vs time curve, AUC, was determined by the linear trapezoidal rule and extrapolated to infinity by dividing the last determined blood concentration by the elimination rate constant in the terminal phase. The systemic bioavailability (F%) following intraduodenal administration was calculated as [formula]

Row | bioavailability [3] [%] | bioavailability [4] [%] | Chemical stability at pH 7, half-life (t 1/2) ([5]; 37°C) [h] | half-life ([5]; pH 7, 37°C, read-out: Chemical stability at pH 7, half-life (t 1/2) (converted)) [h] | bioavailability [6] [%] | Structure (SMILES) | Inhibition of acid secretion, Rat ED50, id ([1]; route id) [µmol/kg] | Inhibition of acid secretion, Rat ED50, iv ([1]; route iv) [µmol/kg] | inhibition of acid secretion ([2]; Dog 4, 3 μmol/kg, id (footnote to id column)) [%] | inhibition of acid secretion ([2]; Dog 5, 3 μmol/kg, id (footnote to id column)) [%] | ED50 ([1]; route id, read-out: Inhibition of acid secretion, Rat ED50, id) [µmol/kg] | ED50 ([1]; route iv, read-out: Inhibition of acid secretion, Rat ED50, iv) [µmol/kg] | ED50 ([2]; Canis lupus familiaris, dog, route id, acid output 2 h after dosing) [µmol/kg] | inhibition of acid secretion ([2]; Dog 1, 1 μmol/kg, iv) [%] | inhibition of acid secretion (in words) ([2]; Dog 2, 1 μmol/kg, iv) | inhibition of acid secretion ([2]; Dog 3, 2 μmol/kg, iv) [%]
1 |  |  |  |  |  | CC(C)Oc1ccnc(C[S+]([O-])c2nc3cc(F)ccc3[nH]2)c1 (stereo not drawn) [Ref., 5-fluoro-2-[[(4-isopropoxy-2-pyridinyl)-methyl]sulfinyl]-1H-benzimidazole, reference compound] | 4.0 | 1.8 | 95 | 98 |  |  |  |  |  | 
2 | 55 | 80 | 23 | 23 | 82 | [O-][S+](Cc1cc(OCC2CC2)ccn1)c1nc2cc(F)ccc2[nH]1 (stereo not drawn) [Example 1, 5-fluoro-2-[[(4-cyclopropyl-methoxy-2-pyridinyl)methyl]sulfinyl]-1H-benzimidazole] |  |  |  |  | 2.2 | 1.2 | 1 | 35 | no effect | 98
